This passage reports IC50 results from patent US20210238192A1, “VASCULAR ADHESION PROTEIN-1 (VAP-1) MODULATORS AND THERAPEUTIC USES THEREOF” (Blade Therapeutics, Inc., priority 2018, published 2021).

Holding throughout (assay type): biochemical
One assay concerns the target T1, Human MAO-A (Homo sapiens, UniProt P21397).
T1 sequence (P21397 1-527): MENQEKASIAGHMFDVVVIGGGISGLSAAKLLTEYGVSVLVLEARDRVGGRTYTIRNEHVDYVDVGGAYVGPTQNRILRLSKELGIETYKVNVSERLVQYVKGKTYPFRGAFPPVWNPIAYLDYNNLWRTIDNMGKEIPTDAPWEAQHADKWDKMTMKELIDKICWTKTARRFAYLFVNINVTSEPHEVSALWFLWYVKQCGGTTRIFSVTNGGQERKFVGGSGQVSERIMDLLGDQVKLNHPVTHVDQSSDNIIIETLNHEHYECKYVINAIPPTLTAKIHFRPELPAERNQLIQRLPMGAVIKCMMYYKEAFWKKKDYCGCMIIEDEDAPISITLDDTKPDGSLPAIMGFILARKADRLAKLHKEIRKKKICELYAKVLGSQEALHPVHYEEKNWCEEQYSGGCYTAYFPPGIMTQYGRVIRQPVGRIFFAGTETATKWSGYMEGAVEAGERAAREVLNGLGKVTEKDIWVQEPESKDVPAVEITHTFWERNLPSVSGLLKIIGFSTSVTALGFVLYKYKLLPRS
The assay is described as follows: MAO-A inhibition (Amplex Red continuous fluorescence assay). Particulars: 30 min pre-incubation at room temp; substrate tyramine; read-out: Human MAO-A IC50. Here is the method: (§1) VAP-1, DAO, MAO-A, MAO-B, and HRP activity and inhibition thereof was assessed by means of a continuous fluorescence assay. The Amplex Red Hydrogen Peroxide/Peroxidase Assay (ThermoFisher) was optimized for detecting amine oxidase (AO) activity. In an enzyme-coupled reaction, the H2O2 generated by AO reacts 1:1 with Amplex Red reagent to produce fluorescent product resorufin.
(§2) Assays were typically setup in black 384-well plates using automated liquid handling as follows. VAP-1/MAO assay buffer contains […] sodium phosphate, pH 7.4; DAO assay buffer contains 50 mM HEPES, pH 7.5; HRP assay buffer contains 100 mM CHES, 1 mM MgCl2, 50 mM NaCl, 0.05% BSA, pH 9.0. Inhibitors were serially diluted in DMSO and used to setup 2× mixtures with AO in the aforementioned buffer. After 30 min pre-incubation at 37° C. (VAP-1, HRP) or room temp (DAO, MAO), the reaction was initiated by adding a 2× mix of Amplex Red, HRP (coupling enzyme), and substrate (benzylamine, histamine, tyramine, benzylamine, H2O2, for VAP-1, DAO, MAO-A, MAO-B, and HR, respectively) in the same buffer. Reaction progress curve data were typically collected for 5 min using excitation/emission wavelengths of 510 nm/565 nm on FLIPR-Tetra plate readers (Molecular Devices Inc). Reaction rates were calculated from progress curve slopes typically over 60-150 sec. Dose response curves (rate vs. log inhibitor concentration) were typically fit to a 4-parameter logistic function to extract IC50 values.

A further assay deals with T2, Human MAO-B (Homo sapiens, UniProt P27338).
T2 sequence (P27338 1-520): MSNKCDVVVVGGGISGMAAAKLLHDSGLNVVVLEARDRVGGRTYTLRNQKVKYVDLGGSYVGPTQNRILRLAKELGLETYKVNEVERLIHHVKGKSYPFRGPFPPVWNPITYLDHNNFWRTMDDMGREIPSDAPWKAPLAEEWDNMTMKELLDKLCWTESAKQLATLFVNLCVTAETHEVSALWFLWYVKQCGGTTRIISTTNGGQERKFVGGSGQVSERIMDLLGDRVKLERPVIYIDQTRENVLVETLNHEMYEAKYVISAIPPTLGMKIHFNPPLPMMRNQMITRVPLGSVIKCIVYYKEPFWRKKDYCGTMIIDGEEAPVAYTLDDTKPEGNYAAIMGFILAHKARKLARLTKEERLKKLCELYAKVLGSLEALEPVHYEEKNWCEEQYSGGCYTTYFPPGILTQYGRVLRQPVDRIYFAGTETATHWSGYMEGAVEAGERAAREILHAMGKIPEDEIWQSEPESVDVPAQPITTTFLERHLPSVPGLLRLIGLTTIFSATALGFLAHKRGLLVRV
Nature of the assay: MAO-B inhibition (Amplex Red continuous fluorescence assay). Particulars: 30 min pre-incubation at room temp; substrate benzylamine; read-out: Human MAO-B IC50. Here is the method:
as §1, §2

Another assay deals with T3, Human DAO (Homo sapiens, UniProt P19801).
T3 sequence (P19801 20-751): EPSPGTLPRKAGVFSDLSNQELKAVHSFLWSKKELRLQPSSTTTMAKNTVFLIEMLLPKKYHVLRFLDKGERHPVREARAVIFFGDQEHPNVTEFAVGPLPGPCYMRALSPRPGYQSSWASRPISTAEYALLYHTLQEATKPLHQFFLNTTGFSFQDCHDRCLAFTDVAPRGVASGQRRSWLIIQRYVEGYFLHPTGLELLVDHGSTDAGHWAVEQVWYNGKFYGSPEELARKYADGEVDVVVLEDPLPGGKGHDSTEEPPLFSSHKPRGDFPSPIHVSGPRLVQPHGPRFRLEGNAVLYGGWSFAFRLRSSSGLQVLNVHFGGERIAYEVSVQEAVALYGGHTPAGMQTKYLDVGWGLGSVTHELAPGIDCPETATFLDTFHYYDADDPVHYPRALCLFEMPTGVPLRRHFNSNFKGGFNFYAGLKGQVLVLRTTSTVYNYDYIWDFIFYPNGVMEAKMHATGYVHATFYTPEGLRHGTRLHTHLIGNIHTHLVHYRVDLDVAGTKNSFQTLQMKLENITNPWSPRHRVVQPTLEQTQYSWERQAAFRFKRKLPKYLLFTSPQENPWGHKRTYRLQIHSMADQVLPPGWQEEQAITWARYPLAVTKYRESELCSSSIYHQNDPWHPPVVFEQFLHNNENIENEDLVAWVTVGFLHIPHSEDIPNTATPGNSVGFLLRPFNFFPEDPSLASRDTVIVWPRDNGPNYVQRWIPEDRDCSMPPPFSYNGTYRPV
The assay is described as follows: DAO inhibition (Amplex Red continuous fluorescence assay). Particulars: 30 min pre-incubation at room temp; substrate histamine; read-out: Human DAO IC50. As for the experimental part: as §1, §2

A further assay deals with T4, Human VAP-1 (Homo sapiens, UniProt Q16853).
T4 sequence (Q16853 1-763): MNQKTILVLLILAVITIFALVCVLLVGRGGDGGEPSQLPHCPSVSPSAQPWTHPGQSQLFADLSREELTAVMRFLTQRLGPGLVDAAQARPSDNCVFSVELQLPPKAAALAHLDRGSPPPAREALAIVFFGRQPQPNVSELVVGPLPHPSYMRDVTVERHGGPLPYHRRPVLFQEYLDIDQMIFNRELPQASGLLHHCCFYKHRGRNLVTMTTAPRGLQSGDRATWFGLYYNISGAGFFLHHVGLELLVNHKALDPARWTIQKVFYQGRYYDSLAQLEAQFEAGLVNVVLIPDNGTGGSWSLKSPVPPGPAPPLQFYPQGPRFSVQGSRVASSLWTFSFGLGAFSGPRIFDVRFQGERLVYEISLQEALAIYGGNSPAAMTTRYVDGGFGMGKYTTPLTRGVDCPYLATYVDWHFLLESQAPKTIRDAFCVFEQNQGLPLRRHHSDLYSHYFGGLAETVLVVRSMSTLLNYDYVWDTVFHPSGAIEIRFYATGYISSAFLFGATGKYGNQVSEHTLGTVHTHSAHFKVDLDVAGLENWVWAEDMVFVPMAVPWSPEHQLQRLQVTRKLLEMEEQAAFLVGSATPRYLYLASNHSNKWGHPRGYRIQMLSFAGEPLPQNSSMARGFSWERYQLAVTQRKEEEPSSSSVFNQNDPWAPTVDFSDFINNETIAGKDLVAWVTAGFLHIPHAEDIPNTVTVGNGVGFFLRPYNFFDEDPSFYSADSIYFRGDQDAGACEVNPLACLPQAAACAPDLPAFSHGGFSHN
The assay is described as follows: VAP-1 inhibition assay (Amplex Red continuous fluorescence assay). Particulars: 30 min pre-incubation at 37° C.; substrate benzylamine; read-out: Human VAP-1 IC50. Here is the method: as §1, §2

Where a name gives a salt, the structure may show the parent alone. Some results are limits rather than exact numbers.

As to `NC/C(=C/F)COc1ccc(-c2cocn2)cc1` [Compound 30, (Z)-3-fluoro-2-((4-(oxazol-4-yl)phenoxy)methyl)prop-2-en-1-amine hydrochloride], the IC50 at Human MAO-A, at Human MAO-B, on Human DAO and at Human VAP-1 was under 3 µM in each case.

In the case of `NC/C(=C/F)COc1ccc(-c2nc3ccccc3[nH]2)cc1` [Compound 11, (Z)-2-((4-(1H-benzo[d]imidazol-2-yl)phenoxy)methyl)-3-fluoroprop-2-en-1-amine hydrochloride], the IC50 on Human MAO-A, at Human MAO-B, on Human DAO and on Human VAP-1 was under 3 µM each time.

As for `NC/C(=C\F)CNc1ccccc1` [Compound 3, (E)-2-(fluoromethylene)-N^1-phenylpropane-1,3-diamine hydrochloride], the concentration for half-maximal inhibition (IC50) (usually the concentration at which inhibition is half-maximal) at Human MAO-A is over 10 µM; on Human MAO-B it was under 3 µM; on Human DAO it was over 10 µM; on Human VAP-1, under 3 µM.

Regarding `CCN(CC)C(=O)Nc1ccc(OC/C(=C/F)CN)cc1` [Compound 24, (E)-3-(4-((2-(aminomethyl)-3-fluoroalkyl)oxy)phenyl)-1,1-diethylurea hydrochloride], the IC50 was 3 to 10 µM on Human MAO-A, under 3 µM on Human MAO-B, over 10 µM at Human DAO and under 3 µM at Human VAP-1.

Turning to `Cn1nccc1-c1ccc(OC/C(=C\F)CN)cc1` [Compound 49, (Z)-3-fluoro-2-((4-(1-methyl-1H-pyrazol-5-yl)phenoxy)methyl)prop-2-en-1-amine hydrochloride], the concentration for half-maximal inhibition (IC50) on Human MAO-A, on Human MAO-B, at Human DAO and on Human VAP-1 was under 3 µM in each case.

For the compound `NC/C(=C/F)COCc1ccccc1` [Compound 6, (Z)-2-((benzyloxy)methyl)-3-fluoroprop-2-en-1-amine hydrochloride], the half-inhibitory concentration (IC50) on Human MAO-A is under 3 µM; on Human MAO-B, under 3 µM; on Human DAO, 3 to 10 µM; on Human VAP-1, under 3 µM.

On to `NC/C(=C\F)COc1ccc(-c2ncn[nH]2)cc1` [Compound 64, (E)-2-((4-(1H-1,2,4-triazol-5-yl)phenoxy)methyl)-3-fluoroprop-2-en-1-amine], for which the 50% inhibitory concentration (IC50) at Human MAO-A is 3 to 10 µM; on Human MAO-B it was under 3 µM; on Human DAO it was under 3 µM; on Human VAP-1, under 3 µM.

As to `NC/C(=C/F)COc1cccc2scnc12` [Compound 9, (Z)-2-((benzo[d]thiazol-4-yloxy)methyl)-3-fluoroprop-2-en-1-amine hydrochloride], the concentration for half-maximal inhibition (IC50) on Human MAO-A is 3 to 10 µM; at Human MAO-B, under 3 µM; at Human DAO it was over 10 µM; at Human VAP-1, under 3 µM.

Take `CC(C)(C)NC(=O)c1ccc2c(ccn2C/C(=C/F)CN)c1` [Compound 59, (E)-1-(2-(aminomethyl)-3-fluoroalkyl)-N-(tert-butyl)-1H-indole-5-carboxamide]: the 50% inhibitory concentration (IC50) at Human MAO-A is over 10 µM; on Human MAO-B, under 3 µM; at Human DAO, over 10 µM; at Human VAP-1 it was under 3 µM.

Take `NC/C(=C\F)CNC(=O)c1ccccc1` [Compound 21, (E)-N-(2-(aminomethyl)-3-fluoroalkyl)benzamide hydrochloride]: the 50% inhibitory concentration (IC50) was 3 to 10 µM on Human MAO-A, over 10 µM at Human MAO-B, over 10 µM on Human DAO and under 3 µM on Human VAP-1.

Turning to `CCNC(=O)N(C)c1ccc(NC/C(=C\F)CN)cc1` [Compound 67, (Z)-1-(4-((2-(aminomethyl)-3-fluoroalkyl)amino)phenyl)-3-ethyl-1-methylurea], the IC50 on Human MAO-A is over 10 µM; at Human MAO-B, 3 to 10 µM; at Human DAO, 3 to 10 µM; on Human VAP-1 it was under 3 µM.

Turning to `NC/C(=C\F)COc1cccc2scnc12` [Compound 8, (E)-2-((benzo[d]thiazol-4-yloxy)methyl)-3-fluoroprop-2-en-1-amine hydrochloride], the half-maximal inhibitory concentration (IC50) at Human MAO-A, on Human MAO-B, at Human DAO and on Human VAP-1 was under 3 µM each time.

Take `NC/C(=C\F)COCc1cccs1` [Compound 41, (E)-3-fluoro-2-((thiophen-2-ylmethoxy)methyl)prop-2-en-1-amine]: the IC50 on Human MAO-A is under 3 µM; at Human MAO-B it was under 3 µM; on Human DAO, over 10 µM; on Human VAP-1, under 3 µM.

Take `NC/C(=C\F)COCc1ccccc1` [Compound 5, (E)-2-((benzyloxy)methyl)-3-fluoroprop-2-en-1-amine hydrochloride]: the 50% inhibitory concentration (IC50) is under 3 µM at Human MAO-A, under 3 µM at Human MAO-B, over 10 µM on Human DAO and under 3 µM on Human VAP-1.
